Measured values: patent US20230339981A1, “KRAS G12D MODULATING COMPOUNDS” (priority 2022, published 2023)

Key:
GP2D (KRAS G12D) cells = assay: 2D cell viability assay (CellTiter-Glo); type: cell-based; settings: GP2d, 96 h, 4 days
Description: Example B. 2D Cell Viability Assay
Compounds were tested in a 384-well format for their ability to inhibit the viability of GP2D (KRAS G12D) cells in 2D assays. Compounds were serially diluted (1:3) in DMSO. The LabCyte ECHO Acoustic dispenser system was used to pre-spot assay plates with 200 nL of test molecule per well. 1000 cells/well (40 μL volume per well) in RPMI medium with 10% FBS, and Penicillin-Streptomycin-Glutamine were plated in pre-spotted 384-well plates (Greiner, Catalog #781076) on the BioTEK EL406 liquid dispenser with a 5 μL dispensing cassette (BioTek 7170011). The plates were incubated at 37° C., 5% CO2 for 4 days before addition of CellTiter-Glo (CTG) reagent and measurement of luminescence signal. EC50 values were defined as the compound concentration that causes a 50% decrease in luminescence signal and were calculated using a sigmoidal dose-response model to generate curve fits.

GDP-loaded KRAS G12D = GDP-loaded KRAS G12D (Homo sapiens (Human), UniProt P01116, G12D); assay: KRAS G12D (GDP) biochemical assay (TR-FRET probe displacement); type: binding; settings: 2 hours
GDP-loaded KRAS G12D, sequence (P01116-2 other isoform, or with tags, fused parts or gaps G12D): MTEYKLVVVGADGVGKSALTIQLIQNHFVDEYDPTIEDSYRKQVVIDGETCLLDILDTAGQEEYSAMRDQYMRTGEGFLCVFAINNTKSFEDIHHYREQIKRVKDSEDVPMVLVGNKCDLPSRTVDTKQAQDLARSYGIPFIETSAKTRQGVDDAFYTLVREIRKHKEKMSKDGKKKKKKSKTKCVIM
Description: Example A. KRAS G12D (GDP) Biochemical Assay
Compounds were tested for binding to GDP-loaded KRAS G12D in a 384-well assay format using a TR-FRET probe displacement assay in buffer consisting of 50 mM Hepes (pH 7.4), 150 mM NaCl, 5 mM MgCl2 and 0.005% Tween-20. […] Compounds were serially diluted (1:3) in DMSO. The LabCyte ECHO Acoustic dispenser system was used to pre-spot the assay plates (384-well Non-Binding Surface plates, Corning, Catalog #3824) with 50 nL of compound. The compounds were pre-incubated with 5 μL of 2× final enzyme concentration for 30 minutes before adding 5 μL of 2× final concentration of Eu-streptavidin and TR-FRET probe (10 μL final reaction volume). The plates were incubated at room temperature for 2 hours before measuring TR-FRET ratio on the Envision plate reader. IC50 values were defined as the compound concentration that causes a 50% decrease in TR-FRET ratio and were calculated using a sigmoidal dose-response model to generate curve fits.

Oc1cc(-c2nc3c4c(nc(OC[C@@]56CCCN5C[C@H](F)C6)nc4c2F)N2CC4CCC(N4)[C@H]2CO3)c2ccccc2c1 (stereo in doubt) [Example 18, 4-((5aS,6S,9R)-1-fluoro-12-(((2R,7aS)-2-fluorotetrahydro-1H-pyrrolizin-7a(5H)-yl)methoxy)-5a,6,7,8,9,10-hexahydro-5H-4-oxa-3,10a,11,13,14-pentaaza-6,9-methanonaphtho[1,8-ab]heptalen-2-yl)naphthalen-2-ol]
EC50 (GP2D (KRAS G12D) cells): > 10000 nM
IC50 (GDP-loaded KRAS G12D): > 1000 nM

Oc1cc(-c2nc3c4c(nc(OC[C@@]56CCCN5C[C@H](F)C6)nc4c2F)N2CC4CCC(N4)[C@@H]2CO3)c2ccccc2c1 (stereo in doubt) [Example 21, 4-((5aR,6S,9R)-1-fluoro-12-(((2R,7aS)-2-fluorotetrahydro-1H-pyrrolizin-7a(5H)-yl)methoxy)-5a,6,7,8,9,10-hexahydro-5H-4-oxa-3,10a,11,13,14-pentaaza-6,9-methanonaphtho[1,8-ab]heptalen-2-yl)naphthalen-2-ol]
EC50 (GP2D (KRAS G12D) cells): 3100 nM
IC50 (GDP-loaded KRAS G12D): 2100 nM

C=C(Cl)c1c(C)ccc2cc(O)cc(-c3nc4c5c(nc(OC[C@@]67CCCN6C[C@H](F)C7)nc5c3F)N3CC5CCC(N5)[C@H]3CO4)c12 (stereo in doubt) [Example 74, 5-(1-chlorovinyl)-4-((5aS,6R,9S)-1-fluoro-12-(((2R,7aS)-2-fluorotetrahydro-1H-pyrrolizin-7a(5H)-yl)methoxy)-5a,6,7,8,9,10-hexahydro-5H-4-oxa-3,10a,11,13,14-pentaaza-6,9-methanonaphtho[1,8-ab]heptalen-2-yl)-6-methylnaphthalen-2-ol]
EC50 (GP2D (KRAS G12D) cells): 310 nM
IC50 (GDP-loaded KRAS G12D): 16 nM

C#Cc1c(F)ccc2cccc(-c3nc4c5c(nc(OC[C@@]67CCCN6C[C@@H](OC(C(F)(F)F)(C(F)(F)F)C(F)(F)F)C7)nc5c3F)N3C[C@H]5CC[C@H](N5)[C@H]3CC4)c12 (stereo in doubt) [Example 135, (5aR,6S,9R)-2-(8-ethynyl-7-fluoronaphthalen-1-yl)-1-fluoro-12-((cis-2-((1,1,1,3,3,3-hexafluoro-2-(trifluoromethyl)propan-2-yl)oxy)tetrahydro-1H-pyrrolizin-7a(5H)-yl)methoxy)-4,5,5a,6,7,8,9,10-octahydro-3,10a,11,13,14-pentaaza-6,9-methanonaphtho[1,8-ab]heptalene]
EC50 (GP2D (KRAS G12D) cells): 100 nM
IC50 (GDP-loaded KRAS G12D): 88.1 nM

C#Cc1c(F)ccc2cccc(-c3nc4c5c(nc(OC[C@@]67CCCN6C[C@@H](OC(F)(F)F)C7)nc5c3F)N3C[C@H]5CC[C@H](N5)[C@H]3CC4)c12 (stereo in doubt) [Example 140, (5aR,6S,9R)-2-(8-ethynyl-7-fluoronaphthalen-1-yl)-1-fluoro-12-((cis-2-(trifluoromethoxy)tetrahydro-1H-pyrrolizin-7a(5H)-yl)methoxy)-4,5,5a,6,7,8,9,10-octahydro-3,10a,11,13,14-pentaaza-6,9-methanonaphtho[1,8-ab]heptalene]
EC50 (GP2D (KRAS G12D) cells): 75.9 nM

C#Cc1c(F)ccc2cccc(-c3nc4c5c(nc(OC[C@]67CCCN6C[C@@H](OC(F)(F)F)C7)nc5c3F)N3C[C@H]5CC[C@H](N5)[C@H]3CC4)c12 (stereo in doubt) [Example 142, (5aR,6S,9R)-2-(8-ethynyl-7-fluoronaphthalen-1-yl)-1-fluoro-12-((trans-2-(trifluoromethoxy)tetrahydro-1H-pyrrolizin-7a(5H)-yl)methoxy)-4,5,5a,6,7,8,9,10-octahydro-3,10a,11,13,14-pentaaza-6,9-methanonaphtho[1,8-ab]heptalene]
EC50 (GP2D (KRAS G12D) cells): 94.8 nM
IC50 (GDP-loaded KRAS G12D): 3.6 nM

Oc1cc(-c2nc3c4c(nc(OC[C@@]56CCCN5C[C@H](F)C6)nc4c2F)N2C[C@H]4CC[C@H](N4)[C@H]2CO3)c2c(F)cccc2c1 [Example 5, 5-fluoro-4-((5aS,6S,9R)-1-fluoro-12-(((2R,7aS)-2-fluorotetrahydro-1H-pyrrolizin-7a(5H)-yl)methoxy)-5a,6,7,8,9,10-hexahydro-5H-4-oxa-3,10a,11,13,14-pentaaza-6,9-methanonaphtho[1,8-ab]heptalen-2-yl)naphthalen-2-ol]
EC50 (GP2D (KRAS G12D) cells): 250 nM
IC50 (GDP-loaded KRAS G12D): 3 nM

Oc1cc(-c2nc3c4c(nc(OC[C@@]56CCCN5C[C@H](F)C6)nc4c2F)N2C[C@H]4CC[C@H](N4)[C@H]2CO3)c2c(F)c(Cl)ccc2c1 [Example 6, 6-chloro-5-fluoro-4-((5aS,6S,9R)-1-fluoro-12-(((2R,7aS)-2-fluorotetrahydro-1H-pyrrolizin-7a(5H)-yl)methoxy)-5a,6,7,8,9,10-hexahydro-5H-4-oxa-3,10a,11,13,14-pentaaza-6,9-methanonaphtho[1,8-ab]heptalen-2-yl)naphthalen-2-ol]
EC50 (GP2D (KRAS G12D) cells): 70 nM
IC50 (GDP-loaded KRAS G12D): 2 nM

Oc1cc(-c2nc3c4c(nc(OC[C@@]56CCCN5C[C@H](F)C6)nc4c2F)N2C[C@H]4CC[C@H](N4)[C@H]2CO3)c2c(OC(F)(F)F)c(F)ccc2c1 [Example 7, 6-fluoro-4-((5aS,6S,9R)-1-fluoro-12-(((2R,7aS)-2-fluorotetrahydro-1H-pyrrolizin-7a(5H)-yl)methoxy)-5a,6,7,8,9,10-hexahydro-5H-4-oxa-3,10a,11,13,14-pentaaza-6,9-methanonaphtho[1,8-ab]heptalen-2-yl)-5-(trifluoromethoxy)naphthalen-2-ol]
EC50 (GP2D (KRAS G12D) cells): 16 nM
IC50 (GDP-loaded KRAS G12D): 0.6 nM

Oc1cc(-c2nc3c4c(nc(OC[C@@]56CCCN5C[C@H](F)C6)nc4c2F)N2C[C@H]4CC[C@H](N4)[C@H]2CO3)c2cc(F)ccc2c1 [Example 8, 6-fluoro-4-((5aS,6S,9R)-1-fluoro-12-(((2R,7aS)-2-fluorotetrahydro-1H-pyrrolizin-7a(5H)-yl)methoxy)-5a,6,7,8,9,10-hexahydro-5H-4-oxa-3,10a,11,13,14-pentaaza-6,9-methanonaphtho[1,8-ab]heptalen-2-yl)naphthalen-2-ol]
EC50 (GP2D (KRAS G12D) cells): 54 nM
IC50 (GDP-loaded KRAS G12D): 2 nM

Oc1cc(-c2nc3c4c(nc(OC[C@@]56CCCN5C[C@H](F)C6)nc4c2F)N2C[C@H]4CC[C@H](N4)[C@H]2CO3)c2c(C=C(F)F)c(F)ccc2c1 [Example 10, 5-(2,2-difluorovinyl)-6-fluoro-4-((5aS,6S,9R)-1-fluoro-12-(((2R,7aS)-2-fluorotetrahydro-1H-pyrrolizin-7a(5H)-yl)methoxy)-5a,6,7,8,9,10-hexahydro-5H-4-oxa-3,10a,11,13,14-pentaaza-6,9-methanonaphtho[1,8-ab]heptalen-2-yl)naphthalen-2-ol]
EC50 (GP2D (KRAS G12D) cells): 250 nM
IC50 (GDP-loaded KRAS G12D): 18 nM

Oc1cc(-c2nc3c4c(nc(OC[C@@]56CCCN5C[C@H](F)C6)nc4c2F)N2C[C@H]4CC[C@H](N4)[C@H]2CO3)c2c(F)c(F)c(F)cc2c1 [Example 11, 5,6,7-trifluoro-4-((5aS,6S,9R)-1-fluoro-12-(((2R,7aS)-2-fluorotetrahydro-1H-pyrrolizin-7a(5H)-yl)methoxy)-5a,6,7,8,9,10-hexahydro-5H-4-oxa-3,10a,11,13,14-pentaaza-6,9-methanonaphtho[1,8-ab]heptalen-2-yl)naphthalen-2-ol]
EC50 (GP2D (KRAS G12D) cells): 56 nM
IC50 (GDP-loaded KRAS G12D): 1 nM

C#Cc1c(F)ccc2cc(O)cc(-c3nc4c5c(nc(OC[Si](C)(C)CN6CCOCC6)nc5c3F)N3C[C@H]5CC[C@H](N5)[C@H]3CO4)c12 [Example 29, 4-((5aS,6S,9R)-12-((dimethyl(morpholinomethyl)silyl)methoxy)-1-fluoro-5a,6,7,8,9,10-hexahydro-5H-4-oxa-3,10a,11,13,14-pentaaza-6,9-methanonaphtho[1,8-ab]heptalen-2-yl)-5-ethynyl-6-fluoronaphthalen-2-ol]
EC50 (GP2D (KRAS G12D) cells): > 1000 nM

Fc1ccc2cccc(-c3nc4c5c(nc(OC[C@@]67CCCN6C[C@H](F)C7)nc5c3F)N3C[C@H]5CC[C@H](N5)[C@H]3CC4)c2c1OC(F)(F)F [Example 65, (5aR,6S,9R)-1-fluoro-2-(7-fluoro-8-(trifluoromethoxy)naphthalen-1-yl)-12-(((2R,7aS)-2-fluorotetrahydro-1H-pyrrolizin-7a(5H)-yl)methoxy)-4,5,5a,6,7,8,9,10-octahydro-3,10a,11,13,14-pentaaza-6,9-methanonaphtho[1,8-ab]heptalene]
EC50 (GP2D (KRAS G12D) cells): 450 nM

C#Cc1c(F)ccc2cc(O)cc(-c3nc4c5c(nc(OC[C@@]67CCCN6C[C@H](F)C7)nc5c3F)N3C[C@H]5CC[C@H](N5)[C@@H]3CC4)c12 [Example 133, 5-ethynyl-6-fluoro-4-((5aS,6S,9R)-1-fluoro-12-(((2R,7aS)-2-fluorotetrahydro-1H-pyrrolizin-7a(5H)-yl)methoxy)-4,5,5a,6,7,8,9,10-octahydro-3,10a,11,13,14-pentaaza-6,9-methanonaphtho[1,8-ab]heptalen-2-yl)naphthalen-2-ol]
EC50 (GP2D (KRAS G12D) cells): 1.1 nM
